Patent US7049334B2, “Enhancement of learning and memory and treatment of amnesia” (priority 2001, dated 2006)
“And” between values parts separate entries of the source, which are not always exact repeats. Equal values may be shown once.

What was measured:
[1] = tested on: rats (passive avoidance learning); assay: One-trial step-through passive inhibitory avoidance task; format: in vivo
Description: Passive Avoidance and active avoidance task: Rats were trained and tested on a one-trial step-through passive inhibitory avoidance task with a procedure as described in Liang et al. (1998, Chin. J. Physiol. 41: 33–44). Briefly, an apparatus was a trough-shape alley divided by a sliding door into a well-lit safe compartment and a dark shock compartment. A rat was placed in the lit side facing away from the door. As the rat turned around, the door was opened. After the rat stepped into the dark compartment, it received an inescapable footshock via a constant current shocker controlled by a timer (Lafayette Instruments, Model 80240 and Model 58010, Indiana, USA). After administration of the foot-shock, the rat was removed from the alley and returned to its home cage. In a retention test given 24 hrs or 10 days later, the rat was reintroduced into the alley and the latency of stepping into the shock compartment with all four feet was taken as a retention score.
The amygdala is also implicated in learning and memory. Studies have shown that this brain structure is particularly involved in processing affective information. See, e.g., Cahill and McGaugh (1990) Behav. Neurosci. 104: 532–543; and Gilbert et al. (1991) Behav. Neurosci. 105: 533–561. It has been reported that nitric oxide is also involved in activity-dependent synaptic plasticity and passive avoidance learning in amygdaloid nucleus. See, e.g., Bernabeu et al. (1995) NeuroReport 6: 1498–1500; Watanabe et al. (1995) Brain Res. 688: 233–236; and Teledgy and Kokavszky (1997) Neuropharmacology 36: 1583–1587. The effect of Compound 1 on passive avoidance learning was studied. Compound 1 was injected (i.p., 1 mg/kg) 10 min before foot-shock training. […] The memory lasts for several days. The retention scores were very high even if tested on day 10. There were much more rats which had retention latencies longer than 5 min in Compound 1-treated rats (2 out of 15 in a control group and 11 out of 12 in a Compound 1-treated group, respectively) tested on both day-1 and day-10. When the Compound 1 was mixed with 1.25% CMC and delivered to stomach directly (10 mg/kg) before foot-shock. The retention test was performed 1 day and 10 days later, respectively. […] Rats of 1-year-old were chosen for this experiment. Compound 1 (1 mg/kg) was i.p. injected 10 min before foot-shock. The retention test was performed 1 day and 10 days later, respectively.

mice (motor learning) = assay: Rotorod test; format: in vivo; details: i.p. 1 mg/kg 20 min before first trial, 28 rpm
Method: Rotorod Test: This experiment was performed with mice (male, 20–25 gm). A rotorod apparatus was a plastic cylindrical rod (3 cm in diameter×13 cm in length). The rod was supported at the ends by two walls and was 25 cm from the base of the walls. The walls at the ends of the rod were high enough so that the mice cannot climb off the rod. Three trials were performed for each experiment. Compound 1 (1 mg/kg) or vehicle was i.p. injected 20 min before the first trial. For each trial of the rotorod test, the mice were placed on the rod and timed until they fell off the rod. They were timed up to a maximum of 3 min. The interval was 10 min. The rod was turned by an electric motor at 28 rpm.
Cerebellar nitric oxide has been also reported to be involved in LTD and motor learning. See, e.g., Li et al. (1995) J. Neurophysiol. 74: 489–494. Compound 1 improving motor learning was studied. Mice were chosen for this kind of experiment. […] The performance of control mice got improvement with increasing trial numbers, with a better improvement at the third trial. […] It is obvious that Compound 1 can also improve motor learning by mainly acting on the cerebellum.

[2] = tested on: Schaffer collateral-CA1 pathway of rat hippocampal slices; assay: LTP induction in Schaffer collateral-CA1 pathway of hippocampal slices (fEPSP slope); format: cell-based, Wistar rats; details: for fEPSP slope: 1.6 μM perfused 6 min (3 min before and 3 min after tetanus)
[3] = aged rats (1-year-old), i.p. 1 mg/kg 10 min before foot-shock
[4] = aged rats (1-year-old), i.p. 1 mg/kg 10 min before foot-shock, 1 mg/kg
[5] = oral 10 mg/kg in 1.25% CMC before foot-shock
[6] = oral 10 mg/kg in 1.25% CMC before foot-shock, ceiling 300 s or 600 s, 10 mg/kg

In the case of `OCc1ccc(-c2nn(Cc3ccccc3)c3ccccc23)o1` [Compound 1, 1-benzyl-3-(5′-hydroxymethyl-2′-furyl)-indazole], the “enhancement effect induced by Compound 1, with KT5823” value ([1]; KT5823 i.c.v. 0.2 nmole) is reported as “significantly antagonized”, the “enhancement effect induced by Compound 1, with L-NAME” value ([1]; L-NAME i.c.v. 1 mmole) is reported as “significantly antagonized” and the “retention scores when given before context training” value ([1]; administered 10 min before the context training instead of the foot-shock) is reported as “prolonged the retention scores”. For the same compound, the “Retention Scores Day-1, mean ± std” value [1, 3] was “mean ± std 233.0 ± 47.3 sec”, the “Retention Scores Day-10, mean ± std” value [1, 3] was 181.4 ± 55.7 s and the “Retention Scores Day-1, individual rats” value [1, 4] was >300 sec (3×) and 207.1 sec and 58.1 sec. For the same compound, the “Retention Scores Day-10, individual rats” value [1, 4] was 252.2 s and 255.9 s and 85.8 s and >300 s and 12.9 s, the “retention latencies in the lighted compartment” value ([1]; i.p. 1 mg/kg 10 min before foot-shock training) was “markedly prolonged” and the “rats with retention latencies longer than 5 min” value ([1]; i.p. 1 mg/kg, tested on both day-1 and day-10) was 11 out of 12. The “effect on avoidance behavior when injected after foot-shock” value ([1]; injected 30 min after foot-shock) was “did not exert any effect”, the “Retention Scores Day-1, mean ± std” value [1, 5] was “mean ± std 369.2 ± 70.2 sec” and the “Retention Scores Day-10, mean ± std” value [1, 5] was 437.3 ± 62.4 s. For the same compound, the “Retention Scores Day-1, individual rats” value [1, 6] was >600 sec (4×) and 15.0 sec and >300 sec (4×) and 77.1 sec, the “Retention Scores Day-10, individual rats” value [1, 6] was 454.0 sec and >600 sec (4×) and 15.0 sec and 207.1 sec and 453.2 sec and 343.2 sec and 500.2 sec and the “motor coordination on a turning rotorod” value (mice (motor learning)) was “significantly improved motor coordination”. For the same compound, the “LTP when compound added after tetanus” value ([2]; 1.6 μM added to ACSF 10 min after 2 trains of strong tetanus (100 Hz/1 sec)) was “not further potentiated”, the “fEPSP slope, simultaneous application of AP-5 and MCPG” value ([2]; AP-5 and MCGP applied simultaneously with Compound 1) was 111.5±12.3% and the “LTP induced by Compound 1, concomitant perfusion with L-NAME” value ([2]; L-NAME 300 μM (nitric oxide synthase inhibitor)) was “significantly attenuated”. For the same compound, the “LTP induced by Compound 1, with Zinc protoporphyrin” value ([2]; Zinc protoporphyrin 1 μM (heme oxygenase inhibitor)) was “did not affect”, the fEPSP ([2]; fEPSP slope 60 min after weak tetanus (50 Hz, 0.5 s), 1.6 μM perfused 3 min before and 3 min after tetanus) was 172.9% and the fEPSP slope ([2]; strong tetanus (two 100 Hz, 1 sec trains 20 sec apart), at 50 min after tetanus, % of base-line slope) was 404.7±34.9%. The fEPSP slope ([2]; weak tetanus (20 Hz, 0.5 sec train), at 1 hr) was 172.9±10.7%, the “fEPSP slope, co-perfused with AP5” value ([2]; weak tetanus (50 Hz/0.5 s), with AP5 100 μM (NMDA receptor antagonist)) was 142.1±13.5% and the “fEPSP slope, co-perfused with KT5823” value ([2]; weak tetanus (50 Hz/0.5 s), with KT 5823 2 μM (protein kinase G inhibitor)) was 112.9±5.4%. The “fEPSP slope, co-perfused with ODQ” value ([2]; weak tetanus (50 Hz/0.5 s), with ODQ 5 μM (soluble guanylyl cyclase inhibitor)) was 107.8±3.9% and the “LTP induced by Compound 1, co-perfused with MCPG” value ([2]; with MCPG 100 μM) was “reduced”.
